Results from patent US20260014147A1, “STAT6 DEGRADERS” (Gilead Sciences, Inc., priority 2024, published 2026).

These compounds were tested against T1, STAT6 (endogenous, HiBiT-tagged) in HeLa LgBiT clone 4.14 cells (Homo sapiens, UniProt P42226) (assay: STAT6 Degrader Assay (HiBiT based, HeLa LgBiT clone 4.14 cells, luminescence, DC50)). Conditions: DC50 provided for test compounds with >80% Emax, geometric mean, read-out: STAT6 degradation DC50.
T1 construct: These cells express endogenous STAT6; host or cells: HeLa LgBiT clone 4.14
T1 sequence (P42226 1-847): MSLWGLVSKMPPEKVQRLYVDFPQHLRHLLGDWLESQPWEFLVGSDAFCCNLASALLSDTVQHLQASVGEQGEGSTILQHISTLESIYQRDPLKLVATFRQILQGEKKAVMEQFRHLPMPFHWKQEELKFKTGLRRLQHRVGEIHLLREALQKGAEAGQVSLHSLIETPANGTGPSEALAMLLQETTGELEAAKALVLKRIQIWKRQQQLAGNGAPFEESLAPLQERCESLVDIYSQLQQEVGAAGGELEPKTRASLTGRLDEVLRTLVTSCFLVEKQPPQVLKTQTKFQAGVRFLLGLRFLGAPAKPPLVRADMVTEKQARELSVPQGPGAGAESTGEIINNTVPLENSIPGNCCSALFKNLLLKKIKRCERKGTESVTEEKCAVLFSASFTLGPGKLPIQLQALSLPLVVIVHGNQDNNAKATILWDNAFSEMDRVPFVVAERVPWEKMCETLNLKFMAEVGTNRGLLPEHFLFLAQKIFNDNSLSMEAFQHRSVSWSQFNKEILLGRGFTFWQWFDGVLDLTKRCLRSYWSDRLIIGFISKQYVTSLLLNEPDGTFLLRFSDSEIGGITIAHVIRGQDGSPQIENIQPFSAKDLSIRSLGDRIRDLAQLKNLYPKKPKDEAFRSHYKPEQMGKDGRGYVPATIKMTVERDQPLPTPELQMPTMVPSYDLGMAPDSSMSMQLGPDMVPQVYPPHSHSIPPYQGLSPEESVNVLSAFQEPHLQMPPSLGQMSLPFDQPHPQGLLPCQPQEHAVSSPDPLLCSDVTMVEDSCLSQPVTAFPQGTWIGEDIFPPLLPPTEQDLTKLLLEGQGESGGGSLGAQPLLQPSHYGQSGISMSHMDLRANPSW
Format: cell-based
How it was run: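 HeLa LgBiT clone 4.14 cells carry CRISPR-inserted HiBiT on endogenous STAT6; 5000 cells/well were exposed to compound for 4-24 h at 37 °C, 5% CO2. Nano-Glo substrate added for 0.5 h; luminescence reflects remaining STAT6, with terfenadine ([…]) wells defining 100% degradation.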

| DC50 [nM] | SMILES |
| --- | --- |
| 18 | C[C@@H](c1cc2c(-c3ccc4[nH]ncc4c3)ccnc2n1C)N1CCC(c2ccc(C(=O)N3CCC(CN4CCN(c5ccc(NC6CCC(=O)NC6=O)c(F)n5)CC4)CC3)cc2)CC1 (stereo partly drawn) [Example 2n7, 3-((6-(4-((1-(4-(1-((S)-1-(4-(1H-indazol-5-yl)-1-methyl-1H-pyrrolo[2,3-b]pyridin-2-yl)ethyl)-piperidin-4-yl)benzoyl)piperidin-4-yl)methyl)piperazin-1-yl)-2-fluoropyridin-3-yl)amino)piperidine-2,6-dione] |
| 6.5 | C[C@@H](c1cc2c(-c3ccc4[nH]ncc4c3)ccnc2n1C)N1CCC(c2ccc(C(=O)N3CCC(CN4CCN(c5ncc(NC6CCC(=O)NC6=O)cc5F)CC4)CC3)cc2)CC1 (stereo partly drawn) [Example 2n8, 3-((6-(4-((1-(4-(1-((S)-1-(4-(1H-indazol-5-yl)-1-methyl-1H-pyrrolo[2,3-b]pyridin-2-yl)ethyl)-piperidin-4-yl)benzoyl)piperidin-4-yl)methyl)piperazin-1-yl)-5-fluoropyridin-3-yl)amino)piperidine-2,6-dione] |
| 30 | CNc1ccc(-c2ccnc3c2cc([C@H](C)N2CCC(c4ccc(C(=O)N5CCC(CN6CCN(c7ncc(NC8CCC(=O)NC8=O)cc7F)CC6)CC5)cc4)CC2)n3C)cn1 (stereo partly drawn) [Example 2n13, 3-((5-fluoro-6-(4-((1-(4-(1-((S)-1-(1-methyl-4-(6-(methylamino)pyridin-3-yl)-1H-pyrrolo[2,3-b]pyridin-2-yl)ethyl)piperidin-4-yl)benzoyl)piperidin-4-yl)methyl)-piperazin-1-yl)pyridin-3-yl)amino)piperidine-2,6-dione] |
| 49 | CNc1ccc(-c2ccnc3c2cc([C@H](C)N2CCC(c4ccc(C(=O)N5CCC(CN6CCN(c7ccc(NC8CCC(=O)NC8=O)c(F)n7)CC6)CC5)cc4)CC2)n3C)cn1 (stereo partly drawn) [Example 2n14, 3-((2-fluoro-6-(4-((1-(4-(1-((S)-1-(1-methyl-4-(6-(methylamino)pyridin-3-yl)-1H-pyrrolo[2,3-b]pyridin-2-yl)ethyl)piperidin-4-yl)benzoyl)piperidin-4-yl)methyl)piperazin-1-yl)pyridin-3-yl)amino)piperidine-2,6-dione] |
| 36.9 | Cn1c(CN2CCC(c3ccc(C(=O)N4CCC(CN5CCC(N6CCN(c7ccc(NC8CCC(=O)NC8=O)cc7F)CC6)C(F)(F)C5)CC4)cc3)CC2)cc2c(-c3ccc4[nH]ncc4c3)ccnc21 (stereo not shown) [Example 2p1, 3-((4-(4-(1-((1-(4-(1-((4-(1H-indazol-5-yl)-1-methyl-1H-pyrrolo[2,3-b]pyridin-2-yl)methyl)-piperidin-4-yl)benzoyl)piperidin-4-yl)methyl)-3,3-difluoropiperidin-4-yl)piperazin-1-yl)-3-fluorophenyl)-amino)piperidine-2,6-dione] |
| 61 | Cn1c(CN2CCC(c3ccc(C(=O)N4CCC(CN5CCC(N6CCN(c7ccc(NC8CCC(=O)NC8=O)cc7F)CC6)C(F)(F)C5)CC4)cc3)CC2)cc2c(-c3ccc(N)nc3)ccnc21 (stereo not shown) [Example 2p2, 3-((4-(4-(1-((1-(4-(1-((4-(6-aminopyridin-3-yl)-1-methyl-1H-pyrrolo[2,3-b]pyridin-2-yl)-methyl)piperidin-4-yl)benzoyl)piperidin-4-yl)methyl)-3,3-difluoropiperidin-4-yl)piperazin-1-yl)-3-fluorophenyl)amino)piperidine-2,6-dione] |
| 20.6 | COCc1nc2cc(-c3ccnc4c3cc(CN3CCC(c5ccc(C(=O)N6CCC(CN7CCC(N8CCN(c9ccc(NC%10CCC(=O)NC%10=O)cc9F)CC8)C(F)(F)C7)CC6)cc5)CC3)n4C)ccc2[nH]1 (stereo not shown) [Example 2p3, 3-((4-(4-(3,3-difluoro-1-((1-(4-(1-((4-(2-(methoxymethyl)-1H-benzo[d]imidazol-5-yl)-1-methyl-1H-pyrrolo[2,3-b]pyridin-2-yl)methyl)piperidin-4-yl)benzoyl)piperidin-4-yl)methyl)piperidin-4-yl)piperazin-1-yl)-3-fluorophenyl)amino)piperidine-2,6-dione] |
| 12.9 | COCc1nc2cc(-c3ccnc4c3cc(CN3CCC(c5ccc(C(=O)N6CCn7nc(CN8CCC(c9ccc(NC%10CCC(=O)NC%10=O)cc9F)C(F)(F)C8)cc7C6)cc5)CC3)n4C)ccc2[nH]1 (stereo not shown) [Example 2q12, 3-((4-(3,3-difluoro-1-((5-(4-(1-((4-(2-(methoxymethyl)-1H-benzo[d]imidazol-5-yl)-1-methyl-1H-pyrrolo[2,3-b]pyridin-2-yl)methyl)piperidin-4-yl)benzoyl)-4,5,6,7-tetrahydropyrazolo[1,5-a]pyrazin-2-yl)methyl)piperidin-4-yl)-3-fluorophenyl)amino)piperidine-2,6-dione] |
| 0.35 | Cn1c(CN2CCC(c3ccc(-c4nnc5ccc(N6CCC(CN7CCN(c8ccc(NC9CCC(=O)NC9=O)cc8F)CC7)CC6)nn45)cc3)CC2)cc2c(-c3ccc(N)nc3)ccnc21 (stereo not shown) [Example 2r1, 3-((4-(4-((1-(3-(4-(1-((4-(6-aminopyridin-3-yl)-1-methyl-1H-pyrrolo[2,3-b]pyridin-2-yl)methyl)-piperidin-4-yl)phenyl)-[1,2,4]triazolo[4,3-b]pyridazin-6-yl)piperidin-4-yl)methyl)piperazin-1-yl)-3-fluorophenyl)-amino)piperidine-2,6-dione] |

Same assay, conditions: Emax provided for test compounds with <80% Emax (and 2c15), geometric mean, read-out: STAT6 degradation Emax

| Emax [%] | SMILES |
| --- | --- |
| 70 to 80 | COCc1nc2cc(-c3ccnc4c3cc([C@H](C)N3CCC(c5ccc(C(=O)N6CCC(CN7CCN(c8ccc(NC9CCC(=O)NC9=O)c(F)n8)CC7)CC6)cc5)CC3)n4C)ccc2[nH]1 (stereo partly drawn) [Example 2n11, 3-((2-fluoro-6-(4-((1-(4-(1-((S)-1-(4-(2-(methoxymethyl)-1H-benzo[d]-imidazol-5-yl)-1-methyl-1H-pyrrolo[2,3-b]pyridin-2-yl)ethyl)piperidin-4-yl)benzoyl)-piperidin-4-yl)methyl)piperazin-1-yl)pyridin-3-yl)amino)piperidine-2,6-dione] |
| 79.3 | CNc1ccc(-c2ccnc3c2cc([C@H](C)N2CCC(c4ccc(C(=O)N5CCC(CN6CCN(c7ncc(NC8CCC(=O)NC8=O)cc7F)CC6)CC5)cc4)CC2)n3C)cn1 (stereo partly drawn) [Example 2n13, 3-((5-fluoro-6-(4-((1-(4-(1-((S)-1-(1-methyl-4-(6-(methylamino)pyridin-3-yl)-1H-pyrrolo[2,3-b]pyridin-2-yl)ethyl)piperidin-4-yl)benzoyl)piperidin-4-yl)methyl)-piperazin-1-yl)pyridin-3-yl)amino)piperidine-2,6-dione] |
| 50 to 60 | CN(C(=O)c1ccc(C2CCN(Cc3cc4c(-c5ccc(N)nc5)ccnc4n3C)CC2)cc1)c1ccc(CC2CCN(c3ccc(NC4CCC(=O)NC4=O)cc3)CC2)cc1 (stereo not shown) [Example 2o1, 4-(1-((4-(6-aminopyridin-3-yl)-1-methyl-1H-pyrrolo[2,3-b]pyridin-2-yl)-methyl)piperidin-4-yl)-N-(4-((1-(4-((2,6-dioxopiperidin-3-yl)amino)phenyl)piperidin-4-yl)methyl)phenyl)-N-methylbenzamide] |
| 60 to 70 | CN(C(=O)c1ccc(C2CCN(Cc3cc4c(-c5ccc6[nH]ncc6c5)ccnc4n3C)CC2)cc1)c1ccc(CC2CCN(c3ccc(NC4CCC(=O)NC4=O)cc3)CC2)cc1 (stereo not shown) [Example 2o2, 4-(1-((4-(1H-indazol-5-yl)-1-methyl-1H-pyrrolo[2,3-b]pyridin-2-yl)methyl)-piperidin-4-yl)-N-(4-((1-(4-((2,6-dioxopiperidin-3-yl)amino)phenyl)piperidin-4-yl)methyl)-phenyl)-N-methylbenzamide] |
| 40 to 50 | Cn1c(CN2CCC(c3ccc(C(=O)N4CCn5c(CN6CCC(c7ccc(NC8CCC(=O)NC8=O)cc7F)CC6)nnc5C4)cc3)CC2)cc2c(-c3ccc(N)nc3)ccnc21 (stereo not shown) [Example 2q1, 3-((4-(1-((7-(4-(1-((4-(6-aminopyridin-3-yl)-1-methyl-1H-pyrrolo[2,3-b]pyridin-2-yl)methyl)piperidin-4-yl)benzoyl)-5,6,7,8-tetrahydro-[1,2,4]triazolo[4,3-a]pyrazin-3-yl)methyl)piperidin-4-yl)-3-fluorophenyl)amino)piperidine-2,6-dione] |
| 70 to 80 | Cn1c(CN2CCC(c3ccc(C(=O)N4CCn5c(CN6CCC(c7ccc(NC8CCC(=O)NC8=O)cc7F)CC6)nnc5C4)cc3)CC2)cc2c(-c3ccc4[nH]ncc4c3)ccnc21 (stereo not shown) [Example 2q2, 3-((4-(1-((7-(4-(1-((4-(1H-indazol-5-yl)-1-methyl-1H-pyrrolo[2,3-b]pyridin-2-yl)methyl)-piperidin-4-yl)benzoyl)-5,6,7,8-tetrahydro-[1,2,4]triazolo[4,3-a]pyrazin-3-yl)methyl)piperidin-4-yl)-3-fluorophenyl)amino)piperidine-2,6-dione] |
| 60 to 70 | Cn1c(CN2CCC(c3ccc(C(=O)N4CCC(CN5CCN(Cc6ccc(NC7CCC(=O)NC7=O)cc6)CC5)CC4)cc3)CC2)cc2c(-c3ccc4[nH]ncc4c3)ccnc21 (stereo not shown) [Example 2s1, 3-((4-((4-((1-(4-(1-((4-(1H-indazol-5-yl)-1-methyl-1H-pyrrolo[2,3-b]pyridin-2-yl)methyl)-piperidin-4-yl)benzoyl)piperidin-4-yl)methyl)piperazin-1-yl)methyl)phenyl)amino)piperidine-2,6-dione] |
